Key:
Assay in all cases: relative viability (nuclei count vs DMSO), 5 days (fraction); higher = more cells survive
QS11 + Pemetrexed = compound: C1CC2=C(C1)C=C(C=C2)OC3=NC(=C4C(=N3)N(C=N4)CC5=CC=C(C=C5)C6=CC=CC=C6)N[C@@H](CC7=CC=CC=C7)CO [QS11] + Nc1nc2[nH]cc(CCc3ccc(C(=O)N[C@@H](CCC(=O)O)C(=O)O)cc3)c2c(=O)[nH]1 [Pemetrexed] (partner 0.2 µM)
In short: (§1)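 Dosing by pin tool came one day after lung cancer cell lines were seeded in 1536-well plates, using either one drug or a fixed anchor-drug dose plus five library-drug doses (not always all listed) in √10 steps. After 5 days, nuclei were counted on 4× images. Relative viability is treated-well nuclei count divided by vehicle-well nuclei count, and values are medians of duplicate plates.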

AZ628 + Bortezomib = compound: CC1=C(C=C(C=C1)NC(=O)C2=CC(=CC=C2)C(C)(C)C#N)NC3=CC4=C(C=C3)N=CN(C4=O)C [AZ628] + CC(C)C[C@H](NC(=O)[C@H](Cc1ccccc1)NC(=O)c1cnccn1)B(O)O [Bortezomib] (partner 0.002 µM)
In short: as §1

AZ628 + Luminespib = compound: CC1=C(C=C(C=C1)NC(=O)C2=CC(=CC=C2)C(C)(C)C#N)NC3=CC4=C(C=C3)N=CN(C4=O)C [AZ628] + CCNC(=O)c1noc(-c2cc(C(C)C)c(O)cc2O)c1-c1ccc(CN2CCOCC2)cc1 [Luminespib] (partner 0.01 µM)
In short: as §1

[1] = compound: C[As](C)SC[C@H](NC(=O)CC[C@H](N)C(=O)O)C(=O)NCC(=O)O [Darinaparsin] + CCNC(=O)c1noc(-c2cc(C(C)C)c(O)cc2O)c1-c1ccc(CN2CCOCC2)cc1 [Luminespib] (partner 0.01 µM)
In short: as §1

Cell Line | relative viability (QS11 + Pemetrexed; first compound 0.08 µM) | relative viability (QS11 + Pemetrexed; first compound 0.253 µM) | relative viability (QS11 + Pemetrexed; first compound 0.8 µM) | relative viability (QS11 + Pemetrexed; first compound 2.53 µM) | relative viability (QS11 + Pemetrexed; first compound 8 µM) | relative viability (AZ628 + Bortezomib; first compound 0.08 µM) | relative viability (AZ628 + Bortezomib; first compound 0.253 µM) | relative viability (AZ628 + Bortezomib; first compound 0.8 µM) | relative viability (AZ628 + Bortezomib; first compound 2.53 µM) | relative viability (AZ628 + Bortezomib; first compound 8 µM) | relative viability (AZ628 + Luminespib; first compound 0.08 µM) | relative viability (AZ628 + Luminespib; first compound 0.253 µM) | relative viability (AZ628 + Luminespib; first compound 0.8 µM) | relative viability (AZ628 + Luminespib; first compound 2.53 µM) | relative viability (AZ628 + Luminespib; first compound 8 µM) | relative viability ([1]; first compound 0.08 µM) | relative viability ([1]; first compound 0.8 µM) | relative viability ([1]; first compound 2.53 µM) | relative viability ([1]; first compound 8 µM)
LU99A | 0.169 | 0.172 | 0.173 | 0.169 | 0.168 | 1.15 | 1.21 | 1.31 | 1.07 | 0.451 | 0.306 | 0.283 | 0.23 | 0.207 | 0.183 | 0.228 | 0.24 | 0.241 | 0.222
NCI-H661 | 1.03 | 0.911 | 0.794 | 0.953 | 0.857 | 0.823 | 0.805 | 0.684 | 0.699 | 0.562 | 1.03 | 0.941 | 0.912 | 0.961 | 0.731 | 0.934 | 0.874 | 1.08 | 1.04
PC-14 |  | 0.145 | 0.14 | 0.178 | 0.155 | 0.815 | 0.746 | 0.942 | 1.08 | 0.604 | 0.197 | 0.132 | 0.146 | 0.167 | 0.202 | 0.19 | 0.185 | 0.157 | 0.0932
SK-LU-1 | 0.993 | 1.07 | 0.913 | 0.835 | 0.781 | 1.1 | 1.05 | 1.17 | 0.854 | 1.04 |  | 0.181 | 0.231 | 0.211 | 0.169 | 0.203 | 0.182 | 0.214 | 0.169
NCI-H2085 | 0.879 | 0.841 | 0.925 | 1.04 | 1.01 | 1.2 | 1.02 | 1.19 | 1.07 | 1.06 | 0.538 | 0.41 | 0.468 | 0.503 | 0.33 | 0.45 | 0.383 | 0.545 | 0.398
NCI-H1666 | 0.834 | 0.937 | 0.824 | 0.739 | 0.651 | 0.812 | 0.715 | 0.567 | 0.621 | 0.705 | 0.978 | 0.882 | 0.848 | 0.843 | 0.829 | 1.05 | 0.897 | 1.24 | 1.07
NCI-H1650 | 0.472 | 0.33 | 0.321 | 0.34 | 0.366 | 0.165 | 0.203 | 0.18 | 0.203 | 0.214 | 0.206 | 0.18 | 0.201 | 0.203 | 0.206 | 0.238 | 0.214 | 0.187 | 0.173
NCI-H647 | 0.2 | 0.146 | 0.155 | 0.159 | 0.202 | 0.984 | 0.905 | 0.903 | 0.947 | 1.28 | 0.155 | 0.132 | 0.221 | 0.186 | 0.186 | 0.176 | 0.154 | 0.0855 | 0.215
A-427 | 0.967 | 0.985 |  | 0.989 | 0.979 | 0.884 | 0.993 | 1.1 | 0.94 | 0.452 | 1.08 | 0.805 | 0.76 | 0.775 | 0.555 | 1.24 | 0.967 | 0.803 | 1.4
NCI-H1915 | 0.583 | 0.538 |  | 0.567 | 0.529 | 0.939 | 1.02 | 0.771 | 0.598 | 0.716 | 0.921 | 0.816 | 0.73 | 0.6 | 0.365 | 1.04 | 0.795 | 0.625 | 0.827
NCI-H1355 | 1.03 | 0.993 | 0.782 | 1.08 | 1.02 | 1.21 | 1.03 | 1.12 | 1.12 | 1.1 | 0.756 | 0.716 | 0.705 | 0.667 | 0.646 | 0.702 | 0.725 | 0.559 | 0.568
HCC-15 | 0.213 | 0.232 | 0.223 | 0.274 | 0.227 | 1.06 | 0.951 | 0.873 | 0.866 | 0.661 | 0.262 | 0.304 | 0.478 | 0.361 | 0.282 | 0.461 | 0.253 | 0.326 | 0.467
NCI-H23 | 0.766 | 0.582 | 0.694 | 0.657 | 0.689 | 1.12 | 1.01 | 0.805 | 0.887 | 0.551 | 0.201 | 0.222 | 0.224 | 0.216 | 0.201 | 0.212 |  | 0.217 | 0.193
NCI-H838 | 0.245 | 0.237 | 0.236 | 0.237 | 0.24 | 0.949 | 0.772 | 0.733 | 0.838 | 0.942 | 0.305 | 0.318 | 0.336 | 0.386 | 0.246 | 0.29 | 0.265 | 0.284 | 0.283
COR-L23 | 0.196 | 0.179 | 0.206 | 0.198 | 0.199 | 1.04 | 1.04 | 0.97 | 1.14 | 0.645 | 0.687 | 0.737 | 0.709 | 0.655 | 0.404 | 1.12 | 0.64 | 0.661 | 0.64
ChaGo-K-1 |  | 0.269 | 0.256 | 0.263 | 0.255 | 0.987 |  | 0.85 | 1.11 | 1.15 | 0.546 | 0.642 | 0.456 | 0.504 | 0.461 | 0.692 | 0.502 | 0.55 | 0.786
LCLC-103H | 0.454 | 0.475 |  | 0.463 | 0.446 | 0.932 | 1.13 | 1.09 | 1.02 | 1.18 | 0.971 | 0.879 | 0.974 | 0.94 | 0.965 | 1.14 | 0.876 | 0.882 | 1.22
